Assay results published in patent US20040076974A1, “Liver necrosis predictive genes” (priority 2002, published 2004).
Where two headings read alike, the source gives them in different places.

Columns and labels:
Male Sprague-Dawley rats = assay type: in vivo, rat; conditions: intraperitoneal injection, 100 mg/kg
Sprague Dawley rats = conditions: rat; for Liver Necrosis / Score (histopathology liver necrosis severity score): intraperitoneal; for Liver Necrosis: 72 hours after treatment; for Score (histopathology liver necrosis severity score): 72 hours, 1 = not remarkable, 2 and higher increasing severity
Summary of the method: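 Toxicity calls (necrosis present or absent at 72 h) and histopathology scores were correlated with tissue gene expression from Crl:CD Sprague Dawley rats. Animals, usually 3 treated with compound by i.p. route and 3 given vehicle, were killed at 6, 24 or 72 h and tissues frozen immediately in liquid nitrogen.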

S=C=Nc1cccc2ccccc12 [1-naphthylisothiocyanate]
hepatocellular necrosis by histopathology (Male Sprague-Dawley rats): induced hepatocellular necrosis
toxicity at the high dose (Sprague Dawley rats; high dose of Table 1, liver necrosis at 72 hours): produced toxicity
Liver Necrosis (Sprague Dawley rats; dose 15 mgkg): no
Score (histopathology liver necrosis severity score) (Sprague Dawley rats; dose 15 mgkg): 1
Liver Necrosis (Sprague Dawley rats; dose 60 mgkg): Yes
Score (histopathology liver necrosis severity score) (Sprague Dawley rats; dose 60 mgkg): 2
